Measured values taken from patent EP1262195A1, “VASOACTIVE AGENTS” (Takeda Chemical Industries, Ltd., priority 2000, dated 2001).

What was measured:
[1] = target: T1, human GPR14 (Homo sapiens, UniProt Q9UKP6); experiment: Inhibition of binding of [125I]-labeled human urotensin II to GPR14 using human GPR14-expressing CHO cell membrane fraction; details: concentration showing 50% inhibition of human GPR14 binding activity, 1nM [125I]-labeled human urotensin II, 25°C for 3 hours, read-out: Inhibitory concentration
T1 construct: expressed in transfected cells
T1 sequence (Q9UKP6 1-389): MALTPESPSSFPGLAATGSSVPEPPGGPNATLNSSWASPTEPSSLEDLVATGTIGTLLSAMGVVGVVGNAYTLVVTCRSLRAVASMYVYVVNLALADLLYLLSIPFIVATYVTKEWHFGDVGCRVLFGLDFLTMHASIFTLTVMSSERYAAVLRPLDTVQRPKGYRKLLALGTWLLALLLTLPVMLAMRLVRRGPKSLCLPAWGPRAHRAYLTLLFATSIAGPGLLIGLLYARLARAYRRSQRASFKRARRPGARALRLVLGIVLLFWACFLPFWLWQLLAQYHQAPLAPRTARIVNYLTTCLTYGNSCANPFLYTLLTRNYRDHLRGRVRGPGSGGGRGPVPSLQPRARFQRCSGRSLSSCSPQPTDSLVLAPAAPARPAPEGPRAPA
Procedure: To 1 x 10^8 CHO/GPR14 cells were added 10 ml of homogenate buffer (10 mM NaHCO3, 5 mM EDTA, 0.5 mM PMSF, 1µg/ml pepstatin, 4µg/ml E64, 20µg/ml leupeptin), and disrupted using Polytron (12,000 rpm, 1 minute). Cell debris solution was centrifuged at 1,000g for 15 minutes to obtain a supernatant. The supernatant was then […] (in Beckman type 30 rotor, 30,000 rpm, 1 hour), and the resultant precipitant was collected as human GPR14-expressing CHO cell fraction.
Isotope-labeled human urotensin II to be used in experiments for testing inhibition of binding was prepared as described below. 5 µg of human urotensin II (available from Peptide Institute, Inc.) was dissolved in 25µl of 0.4M sodium acetate (pH 5.6). […]
Human GPR14-expressing CHO cell fraction was diluted in a membrane diluting buffer (20mM phosphate buffer (pH7.3), 150mM NaCl, 5mM MgCl2,0.1% BSA, 0.05% CHAPS, 0.5mM PMSF, 0.1µg/ml Pepstatin, 20µg/ml Leupeptin, 4µg/ml E-64) to prepare a solution of cell membrane fraction (protein concentration:3µg/ml) for assay. […] Next, the filter was washed three times with membrane diluting buffer (0.2ml), added with 20µl of Microscinti 20 (Packard), and determined for radioactivity in Topcount (Packard). Specific-binding is calculated by subtracting non-specific binding from the total binding. […]

[2] = target: T2, human GPR14-expressing CHO cell (Homo sapiens, UniProt Q9UKP6); experiment: Change in intracellular calcium concentration in human GPR14-expressing CHO cells (FLIPR), antagonist activity assay; format: cell-based; details: 10µl of 10nM urotensin II added, Fluo3, FLIPR
T2 construct: expressed in transfected cells
T2 sequence (Q9UKP6 1-389): T1 sequence (Q9UKP6 1-389)
Procedure: After the transformant E. coli DH5α/pcDNA3.1-hGPR14 prepared in Reference Example 2 was cultured, plasmid DNA for pcDNA3.1-hGPR1 was prepared by using Plasmid Midi Kit (Qiagen). The plasmid DNA was introduced into CHO dhfr cells using CellPhect Transfection Kit (Amersham Pharmacia Biotech) according to the protocol appended thereto. 10µg of DNA was co-precipitated with calcium phosphate to prepare a suspension which was then added to a 10cm petri dish on which 5 x 10^5 or 1 x 10^6 CHO dhfr^- cells had previously been inoculated 24 hours before then. Cells were cultured in a MEMα medium containing 10% fetal bovine serum for one day, subcultured, and cultured in a selection medium, a MEMα medium containing 0.4 mg/ml G418 (GIBCO BRL) and 10% dialysis fetal bovine serum. Colonies of transformed cells (CHO/hGPR14), which were human GPR14-expessing CHO cells growing in the selection medium, were selected.
GPR14-expressing CHO cells were inoculated on a 96-well plate at 1×10^4 cell/well, cultured for 48 hours, and then washed with 0.1ml of HBSS containing 20mM HEPES(pH7.4), 1% FCS and 1% penicillin-streptomycin (hereinafter referred to as "wash buffer"). Next, 100µl of another wash buffer containing 4µM Fluo3, 0.04% pluronic acid and 2.5mM probenicid (hereinafter referred to as "reaction buffer") was added thereto for reaction at 37°C for 1 hour. […]

Compound	IC50 [1]	urotensin II-induced increase in intracellular calcium concentration [2]
Nc1c2c(nc3ccc(Br)cc13)N(Cc1ccccc1)CC2 [compound 2]	2.4 nM	inhibited
Nc1c2c(nc3ccccc13)N(Cc1ccccc1)CC2 [compound 3]	33 nM	
1-benzyl-6-bromo-2,3-dihydro-1H-pyrrolo [2,3-b] quinoline-4-ylamine [Synthesis Example 1]		inhibited
